Source: US20250073229A1, “PHARMACEUTICAL COMPOSITION FOR PREVENTING AND/OR TREATING HEART FAILURE” (OSAKA UNIVERSITY, priority 2022, published 2025)

Test system: left ventricular pressure-loaded model mice (TAC mice)
Assay: Echocardiography in transverse aortic constriction (TAC) left ventricular pressure-loaded model mice
Assay type: in vivo, C57BL/6 mice
Description: Ten-week-old male C57BL/6 mice (about 25 g) were treated with transverse aortic constriction (TAC) to produce left ventricular pressure-loaded model mice (TAC mice). At 2 weeks after TAC (hypertrophic phase), an osmotic mini-pump (Alzet2006) was implanted subcutaneously, and continuous subcutaneous administration of Compound 011 or a vehicle (a solution obtained by mixing dimethyl sulfoxide and polyethylene glycol 300 in a weight ratio of 1:1) was started at a dose of 5 mg/kg/day. The left ventricular wall thickness (IVS), left ventricular end-diastolic diameter (LVDd), left ventricular fractional shortening (LVFS), and left ventricular ejection fraction (LVEF) were observed and evaluated by echocardiography every two weeks after the start of administration (Compound 011 group: 11 animals; vehicle group: 9 animals). In advance, Compound 011 was administered to non-TAC-treated mice at 5 mg/kg/day with an osmotic mini-pump (Alzet2006) in the same manner, and the blood level (tail vein blood sample) was measured at 2, 4, and 6 weeks after administration and the body blood pressure was measured at 2 weeks after administration to thus confirm that the dose of 5 mg/kg/day could be used for TAC mice.

[1] = 8 weeks after TAC (6 weeks after start of administration), 5 mg/kg/day continuous subcutaneous by osmotic mini-pump, p<0.05 vs. vehicle
[2] = 8 weeks after TAC, 5 mg/kg/day continuous subcutaneous

O=C(O)c1cnc(N2CCN(c3noc4cccc(C(F)(F)F)c34)CC2)c(Cl)c1 [Compound 011, 5-Chloro-6-(4-(4-(trifluoromethyl)benzo[d]isoxazol-3-yl)piperazin-1-yl)nicotinic acid]
progressive deterioration of LVFS and LVEF (5 mg/kg/day continuous subcutaneous, vs. vehicle group): significantly suppressed | LVEF (left ventricular ejection fraction) [1]: 80.2±2.7% | left ventricular fractional shortening (LVFS) at 8 weeks after TAC [1]: 48.8±2.6% | interventricular septum (IVS), difference vs. vehicle group [2]: no significant difference | left ventricular end-diastolic diameter (LVDd), difference vs. vehicle group [2]: no significant difference
